IC50 data for 45 compounds are collected here from patent publication US20260097047A1, “Small molecule inhibitors of the ribosome biogenesis factor NVL2” (Board of Regents, The University of Texas System, priority 2023, published 2026).

Read-outs that look alike come from different tables or passages of the source. Bounds are passed on as bounds.

This assay deals with HCT116 cells. Put plainly: Cell viability assay (CellTiter-Glo, 72 hours) in HCT116 human colorectal cancer cells. The class given is cell-based. The method, boiled down:
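2,000 cells/well adhered overnight, then compound added by digital dispenser with DMSO normalized to 0.5%. Viability read after 72 h at 37 °C by ATP-based CellTiter-Glo luminescence. IC50 from ten-point curves baseline-corrected to vehicle, five-parameter asymmetric least-squares fit.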
In general terms: ATP-based viability assays read luminescence as a measure of living cells.

Setting [1] is: Table 8, analogs of scaffold drawing 43 defined by R^2, R^3, X/Y, W, read-out: Activity (IC50 class, cell viability assay).
[2] abbreviates: Homo sapiens, HCT-116, Table 5, HCT116, 72 hours, read-out: Activity.
The mark [3] stands for this setting: Table 9, HCT116, 72 hours, read-out: Activity.
Where [4] appears, read: Table 6, HCT116, 72 hours, read-out: Activity.
[5] abbreviates: Homo sapiens, HCT-116, Table 6, HCT116, 72 hours, read-out: Activity.
[6] abbreviates: Table 5, HCT116, 72 hours, read-out: Activity.

For the compound `CC#CCN1C(=O)c2ccccc2Sc2cc(NC(=O)C3CNC(=O)C3)ccc21` (stereo not drawn) [—CH2CCMe; 2-oxo-pyrrolidin-4-yl; CH/CH; CH], the IC50 under setting [1] fell in the range of 1000 to 5000 nM.
As for `CC#CCN1C(=O)c2ccccc2Sc2cc(NC(=O)N3CCCCC3)cnc21` [Table 1: —CH2CCMe; piperidin-1-yl; CH; N], the IC50 (Table 1, HCT116, 72 hours, read-out: Activity) was < 500 nM.
As to `COCCN1C(=O)c2ccccc2Sc2cc(NC(=O)c3ccc(Cl)c(Cl)c3)ccc21` [—(CH2)2OMe; 3,4-Cl2Ph; CH/CH; S], for the setting “Table 7, cell viability assay, CellTiter-Glo, 72 hours, scaffold drawing 42 with R^2, R^3, X/Y, Z, read-out: Activity”, the IC50 was 1000 to 5000 nM.
`CC#CCN1C(=O)c2ccc(F)cc2Sc2cc(NC(=O)c3ccc(OC)nc3)ccc21` [—CH2CCMe; 6-MeO-pyrid-3-yl; CF/CH; CH]: under setting [1], the IC50 was < 500 nM.
On to `CC#CCN1C(=O)c2ccccc2Sc2cc(NC(=S)Nc3ccc4oc(=O)n(C)c4c3)cnc21`, for which, for the setting “Table 4, HCT116, 72 hours, read-out: Activity”, the IC50 was < 500 nM.
Turning to `CC#CCN1C(=O)c2ccccc2Sc2cc(NC(=O)C34CC(C#N)(C3)C4)cnc21`, under setting [1], the IC50 is < 500 nM.
The same measure, in the same setting: the figure for `O=C1c2ccccc2Sc2cc(NC(=O)C34CC(C3)C4)cnc2N1CC#CC1CC1` is < 500 nM; for `CC#CCN1C(=O)c2cc(F)ccc2Sc2cc(NC(=O)C3CC4(COC4)C3)ccc21` it is < 500 nM.
In the case of `CC#CCN1C(=O)c2ccccc2Sc2cc(Nc3nccc(C#N)c3F)ccc21` [2-((10-(But-2-yn-1-yl)-11-oxo-10,11-dihydrodibenzo[b,f][1,4]thiazepin-7-yl)amino)-3-fluoroisonicotinonitrile], the IC50 under setting [2] was < 500 nM.
As for `CC#CCN1C(=O)c2ccc(F)cc2Sc2cc(NC(=O)c3ccc4scnc4c3)ccc21`, under setting [1], the IC50 is < 500 nM.
Consider `CC#CCN1C(=O)c2ccccc2Sc2cc(NC(=O)C3CCNC3=O)ccc21` (stereo not drawn), for which the IC50 under setting [1] was in the range of 500 to 1000 nM.
On the same count and under the same terms, the figure for `CC#CCN1C(=O)c2ccc(Cl)cc2Sc2cc(NC(=O)C3CCOC3)cnc21` (stereo not drawn) is < 500 nM.
Take `C#CCN1C(=O)c2ccccc2C(C#N)c2cc(NC(=O)[C@H]3C[C@H](OC)C3)ccc21` (stereo partly drawn) [Table 9: —CH2CCH; trans-3-MeOcBu; CHCN]: under setting [3], the IC50 is < 500 nM.
Turning to `O=C(C=CCO)Nc1cnc2c(c1)Sc1ccccc1C(=O)N2CC#CC(F)(F)F` [—CH2CCCF3; CH—═CHCH2OH; CH/CH; N], under setting [1], the IC50 was < 500 nM.
Turning to `CC#CCN1C(=O)c2ccccc2Cc2cc(NC3COC3)ccc21`, the IC50 under setting [4] is < 500 nM.
Turning to `CC#CCN1C(=O)c2ccccc2Sc2cc(Nc3ccncc3)ccc21` [10-(But-2-yn-1-yl)-7-(pyridin-4-ylamino)dibenzo[b,f][1,4]thiazepin-11 (10H)-one], the IC50 under setting [2] is < 500 nM.
Take `CC#CCN1C(=O)c2ccccc2Sc2cc(NC3CC4(CC(O)C4)C3)cnc21` (stereo not drawn): under setting [4], the IC50 is < 500 nM.
Consider `CC#CCN1C(=O)c2ccc(F)cc2Sc2cc(NC(=O)[C@@H]3C[C@H]3CO)cnc21` (relative stereo) [—CH2CCMe; trans-2-HOCH2-cPr; CF/CH; N], for which the IC50 under setting [1] is < 500 nM.
As to `CC#CCN1C(=O)c2ccccc2Sc2cc(Nc3ccccn3)ccc21` [10-(But-2-yn-1-yl)-7-(pyridin-2-ylamino)dibenzo[b,f][1,4]thiazepin-11 (10H)-one], the IC50 under setting [2] is < 500 nM.
For the compound `CC#CCN1C(=O)c2ccccc2Sc2cc(NCC3COC3)ccc21` [10-(But-2-yn-1-yl)-7-((oxetan-3-ylmethyl)amino)dibenzo[b,f][1,4]thiazepin-11 (10H)-one], under setting [5], the IC50 fell in the range of 1000 to 5000 nM.
Consider `CC#CCN1C(=O)c2ccc(Cl)cc2Sc2cc(NC(=O)C3CC4(COC4)C3)cnc21`, for which, under setting [1], the IC50 was < 500 nM.
On the same count and under the same terms, for `COC12CC(C(=O)Nc3cnc4c(c3)Sc3ccc(F)cc3C(=O)N4CC#CC3CC3)(C1)C2` the value was < 500 nM; for `COCC1CC(C(=O)Nc2cnc3c(c2)Sc2ccccc2C(=O)N3CC#CC2CC2)C1` (stereo not drawn) [—CH2CC^cPr; 3-MeOCH2-cBu; CH/CH; N], < 500 nM; for `CC#CCN1C(=O)c2ccc(Cl)cc2Sc2cc(NC(=O)CC3COC3)ccc21` [—CH2CCMe; (oxetan-3-yl)CH2; CCl/CH; CH], < 500 nM.
`CC1c2ccccc2C(=O)N(CC#CC2CC2)c2ccc(NC(=O)C3CCCO3)cc21` (stereo not drawn): under setting [3], the IC50 was < 500 nM.
As for `CC1(O)c2ccccc2C(=O)N(CC#CC2CC2)c2ccc(NC(=O)[C@@H]3C[C@H]3CO)cc21` (relative stereo), under setting [3], the IC50 was < 500 nM.
On the same count and under the same terms, for `CC#CCN1C(=O)c2ccccc2C(C)c2cc(NC(=O)C=CCO)ccc21` (stereo not drawn) [Table 9: —CH2CCMe; CH═CHCH2OH; CHMe] the value was < 500 nM.
Same read-out and setting: for `CC#CCN1C(=O)c2ccccc2C(C)c2cc(NC(=O)C3CC3CO)ccc21` (stereo not drawn) the value was < 500 nM.
Turning to `CC#CCN1C(=O)c2ccccc2Sc2cc(NC(=O)c3cccc(C(=O)N(C)C)c3)ccc21` [—CH2CCMe; 3-Me2NC(O)Ph; CH/CH; CH], under setting [1], the IC50 was < 500 nM.
Still for that read-out and setting: the figure for `CC#CCN1C(=O)c2cc(F)ccc2Sc2cc(NC(=O)C3CC3COC)ccc21` (stereo not drawn) [—CH2CCMe; trans-2-MeOCH2-cPr; CH/CF; CH] is < 500 nM.
`Cc1cnc(Nc2ccc3c(c2)Sc2ccccc2C(=O)N3CC#CCl)c(C)c1`: the IC50 under setting [6] is < 500 nM.
For `CC#CCN1C(=O)c2ccccc2C(C)c2cc(NC(=O)[C@@H]3C[C@H]3C(=O)OC)ccc21` (relative stereo), the IC50 under setting [3] was < 500 nM.
Take `CC#CCN1C(=O)c2cc(F)ccc2Sc2cc(NC(=O)[C@@H]3C[C@H]3CO)cnc21` (relative stereo) [—CH2CCMe; trans-2-HOCH2-cPr; CH/CF; N]: under setting [1], the IC50 is < 500 nM.
As for `CC#CCN1C(=O)c2ccccc2Sc2cc(Nc3ncccc3F)cnc21`, the IC50 under setting [6] was < 500 nM.
Same read-out and setting: for `C#CCN1C(=O)c2ccccc2Sc2cc(Nc3ncc(C)cc3C)ccc21` the value was < 500 nM.
With `CC#CCN1C(=O)c2ccccc2Cc2cc(NC(=O)[C@H]3C[C@H](OC)C3)ccc21` [Table 9: —CH2CCMe; trans-3-MeOcBu; CH2], the IC50 under setting [3] was < 500 nM.
For `CC#CCN1C(=O)c2ccccc2Sc2cc(NCCCOC)ccc21` [Table 6: —CH2CCMe; (CH2)3OMe; CH/CH; S], the IC50 under setting [4] is < 500 nM.
As for `CC#CCN1C(=O)c2ccccc2C(C#N)c2cc(NC(=O)C34CC(OC)(C3)C4)ccc21` (stereo not drawn), the IC50 under setting [3] is < 500 nM.
Turning to `CC#CCN1C(=O)c2ccccc2Sc2cc(NC3COCC3C)cnc21` (stereo not drawn) [11-(But-2-yn-1-yl)-3-((4-methyltetrahydrofuran-3-yl)amino)benzo[f]pyrido[3,2-b][1,4]thiazepin-10(11H)-one], the IC50 under setting [5] is < 500 nM.
As for `CO[C@H]1C[C@H](C(=O)Nc2cnc3c(c2)Sc2cc(Cl)ccc2C(=O)N3CC#CCl)C1` [—CH2CCCl; trans-3-MeOcBu; CCI/CH; N], the IC50 under setting [1] is < 500 nM.
As to `CC#CCN1C(=O)c2ccccc2Sc2cc(NC3CCCC3)ccc21` [Table 6: —CH2CCMe; cPent; CH/CH; S, 10-(But-2-yn-1-yl)-7-(cyclopentylamino)dibenzo[b,f][1,4]thiazepin-11 (10H)-one], the IC50 under setting [5] is < 500 nM.
Regarding `CC#CCN1C(=O)c2ccccc2Sc2cc(Nc3ncc(C)nc3C)ccc21` [10-(But-2-yn-1-yl)-7-((3,5-dimethylpyrazin-2-yl)amino)dibenzo[b,f][1,4]thiazepin-11 (10H)-one], under setting [2], the IC50 is < 500 nM.
With `CC#CCN1C(=O)c2ccccc2Sc2cc(NC(=O)C3CC4(CC(=NO)C4)C3)ccc21` (stereo not drawn), the IC50 under setting [1] is < 500 nM.
Still for that read-out and setting: for `CC#CCN1C(=O)c2ccccc2Sc2cc(NC(=O)CC3COC3)ccc21` [—CH2CCMe; (oxetan-3-yl)CH2; CH/CH; CH] the value was < 500 nM.
For `CC#CCN1C(=O)c2ccccc2Sc2cc(NCC3(C)COC3)ccc21` [10-(But-2-yn-1-yl)-7-(((3-methyloxetan-3-yl)methyl)amino)dibenzo[b,f][1,4]thiazepin-11 (10H)-one], under setting [5], the IC50 is < 500 nM.
